Data on five compounds can be found in PMC4278708, “A Convenient Method for the Synthesis of (Prop-2-Ynyloxy)Benzene Derivatives via Reaction with Propargyl Bromide, Their Optimization, Scope and Biological Evaluation” (PLoS ONE, 2014).

Each structure is given as a SMILES string. Converted amounts (≈) assume the structure as drawn.

A short description of data set [1]: Nitric oxide (NO) scavenging activity (sodium nitropruside / Griess reagent). The settings on record: for IC50: NO scavenging; for Percentage scavenging activity at 50 ug/ml / Percentage scavenging activity at 100 ug/ml: NO. On the procedure:
Solutions of known concentration were prepared by dissolving the synthesized compounds in appropriate solvents. A mixture of sample solution (20 µl), 10 mM sodium nitropruside solution (200 µl) and phosphate buffer of 7.4 pH (1780 µl) was taken in a dry test tube and the mixture was incubated at 37°C for 2 hours. 200 µl Griess reagent (0.3% Sulphanilic acid in glacial acetic acid, 0.1% Naphthyl ethylene diamine HCL (NED): Mixed equal volume of both solutions just before use) was added after the incubation period is over. After 20 min keeping the solution at room temperature, its absorbance at 528 nm was measured. Each sample was analyzed in triplicate. Positive control of any known antioxidant and control of all samples were run in parallel. Use of negative control was to calibrate the instrument. Sample blanks were also prepared in case if the samples were coloured. Correction in the absorbance values was made by subtracting the sample blank reading from the sample reading.
For orientation: Nitrite, measured by Griess reagent, commonly stands in for NO production.

A further data set relates to Bacillus subtillus. Kind of data set: Antibacterial activity, disc diffusion method. It is filed as cell-based. The settings on record: for inhibition at 100 µg/mL: 100 ug/ml, read-out: Bacillus subtillus 100 ug/ml (percentage inhibition); for IC50: read-out: Bacillus subtillus IC50 ug/ml. The source says: (§1) Disc diffusion method was adopted to test the antibacterial activity of synthesized compounds 2a-10 against […] different bacterial strains. Ampiciline was used as positive control to check antibacterial activity of synthesized compounds. The bacterial strains employed were: Escherichia coli, Bacillus subtillus, Shigella flexneri, Staphylococcus aureus, Pseudomonas aeroginosa and Salmonella typhi.
(§2) Disc diffusion method was used for the determination of antibacterial activity. synthetic organic compounds were examined to evaluate their antibacterial potential against four different strains of bacteria i.e. Staphlococcus aureus (Gram + ive), Pseudomonas- aeroginosa (Gram−ive) and Escherichia coli (Gram−ive), Bacillus subtilis (Gram + ive), Salmonella typhi (Gram−ive) and Shigella flexneri (−ive). The synthetic organic compounds were dissolved in an appropriate solvent to get the solution of known concentration (5 µg/µl or 10 µg/µl). In order to prepare discs of different potencies known volume of extract/synthetic organic compound solution was applied on the discs, air dried and used. After preparation of the sterilized nutrient agar and nutrient broth medium, the sterilized nutrient agar medium was poured under aseptic conditions into sterile glass petri dishes/plates. A known volume of bacterial growth culture can also be poured on the surface of agar medium solidified in petri dishes. After inoculation petri plates were kept at room temperature for 15–30 minutes so that the poured medium is adsorbed. All the discs, including test sample, +ive and –ve controls were placed onto the inoculated nutrient agar medium solidified in petri dishes with the help of sterile forceps and incubated the petri plates at 37°C±2°C for 16–24 hours. Zone of inhibition was measured in mm using ordinary scale. Experiment was repeated three times to get the SD values.
On the technique in general: A growth-free zone around the sample is the usual read-out of agar diffusion tests.

A further data set concerns Staphylococcus aureus. Kind of data set: Antibacterial activity, disc diffusion method. It is filed as cell-based. The following applies: for IC50 / inhibition at 40 µg/mL / inhibition at 100 µg/mL: Staphylococcus aureus; for IC50: read-out: Staphylococcus aureus IC50 ug/ml; for inhibition at 40 µg/mL: read-out: Staphylococcus aureus 40 ug/ml (percentage inhibition); for inhibition at 100 µg/mL: read-out: Staphylococcus aureus 100 ug/ml (percentage inhibition).
Source text: as §1, §2

The next data set has as its target urease enzyme (Canavalia ensiformis, UniProt P07374). The data set is described as follows: biochemical. The format is biochemical. The settings on record: for inhibition at 50 µg/mL: read-out: Percentage inhibition at 50 ug/mL; for inhibition at 100 µg/mL: read-out: Percentage inhibition at 100 ug/mL. On the procedure:
Antiurease activity of the synthesized compounds was determined by using the modified phenol-hypochlorite method. Varying concentrations were used to prepare the urease inhibition curve of Thiourea (a known inhibitor of Urease) in the reaction mixture. Phosphate buffer solution of pH 7 containing 1 unit of enzyme was added about 200 µl in the test tube which was followed by the addition of 230 µl of phosphate buffer and 20 µl of thiourea from a scrupulous stock solution for the particular concentration of thiourea in the reaction mixture respectively. Test sample solutions were added instead of thiourea solution in case of test samples. The reaction mixture were mixed and incubated at 25°C for 5 min. 400 µl of urea stock (20 mM) was added in each test tube. In order to allow the action of urease on urea, all the test tubes were incubated at 40°C.
Phenol hypochlorite reagent (1150 µl) was added after 10 min incubation at 40°C. Test tubes were again incubated at 56°C for 25 min. A blue coloured complex was formed in the reaction mixture. The samples were allowed to cool for 5 min and then their absorbance values were measured at 625 nm and the %age inhibition was calculated. Experiment was repeated three times to get the SD values.

Chain of urease enzyme (P07374 whole entry, looked up): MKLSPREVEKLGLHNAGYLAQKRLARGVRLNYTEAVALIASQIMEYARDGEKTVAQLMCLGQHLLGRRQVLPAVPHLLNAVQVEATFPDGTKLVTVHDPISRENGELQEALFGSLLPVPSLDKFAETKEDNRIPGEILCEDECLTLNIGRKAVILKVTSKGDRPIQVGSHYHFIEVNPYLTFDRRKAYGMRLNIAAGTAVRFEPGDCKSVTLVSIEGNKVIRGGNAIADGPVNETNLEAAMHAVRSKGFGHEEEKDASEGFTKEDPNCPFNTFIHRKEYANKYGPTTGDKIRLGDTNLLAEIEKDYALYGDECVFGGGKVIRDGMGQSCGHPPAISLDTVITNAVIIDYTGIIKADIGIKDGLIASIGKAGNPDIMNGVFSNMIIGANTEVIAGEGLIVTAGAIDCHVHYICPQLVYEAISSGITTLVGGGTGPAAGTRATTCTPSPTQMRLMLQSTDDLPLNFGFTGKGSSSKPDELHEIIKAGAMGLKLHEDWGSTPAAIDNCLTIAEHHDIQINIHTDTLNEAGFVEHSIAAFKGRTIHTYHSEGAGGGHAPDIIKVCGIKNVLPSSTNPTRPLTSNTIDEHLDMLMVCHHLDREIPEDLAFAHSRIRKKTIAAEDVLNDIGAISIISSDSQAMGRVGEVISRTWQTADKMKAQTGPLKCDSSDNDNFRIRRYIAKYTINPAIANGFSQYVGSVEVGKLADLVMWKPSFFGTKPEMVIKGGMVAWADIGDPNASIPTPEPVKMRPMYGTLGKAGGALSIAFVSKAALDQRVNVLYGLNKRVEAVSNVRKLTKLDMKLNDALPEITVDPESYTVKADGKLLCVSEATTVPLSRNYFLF

`C#CCOc1ccc(Br)cc1Br` [Compound 2c, 2,4-dibromo-1-(prop-2-ynyloxy)benzene] registered a melting point of 157.95 °C. For the same compound, in data set [1], the IC50 was determined as 63.8 µg/mL (≈ 220 µM), the “Percentage scavenging activity at 50 ug/ml” value stood at 39.67±0.09% and the “Percentage scavenging activity at 100 ug/ml” value is 77.03±0.11%. The “activity against Bacillus subtillus (in words)” value in the data set with Bacillus subtillus is on record as “batter activity”. Besides, in the data set with Bacillus subtillus (Bacillus), the inhibition at 100 µg/mL stood at 55.01 ± 0.25% and the IC50 was determined as 83.8 µg/mL (≈ 289 µM). In addition, in the data set on Staphylococcus aureus, the IC50 was found to be 87.7 µg/mL (≈ 302 µM), the inhibition at 40 µg/mL was 31.47 ± 0.2% and the inhibition at 100 µg/mL is 56 ± 0.1%. For the same compound, on urease enzyme, the IC50 was 242 µM, the inhibition at 50 µg/mL came to 36 ± 0.5% and the inhibition at 100 µg/mL was found to be 86.45 ± 0.07%.

In the case of `C#CCOc1ccc(S(=O)(=O)c2ccc(OCC#C)cc2)cc1` [Compound 4b, 4,4′-sulfonylbis((prop-2-ynyloxy)benzene)], the melting point is 136 °C. Moreover, in data set [1], the IC50 was found to be 89.6 µg/mL (≈ 275 µM), the “Percentage scavenging activity at 50 ug/ml” value is reported as 15.33±0.12% and the “Percentage scavenging activity at 100 ug/ml” value amounted to 59±0.15%. For the same compound, in the data set on Bacillus subtillus (Bacillus), the inhibition at 100 µg/mL was found to be 50.9 ± 0.34% and the IC50 was 97.6 µg/mL (≈ 299 µM). For the same compound, in the data set on Staphylococcus aureus, the “activity against Staphylococcus aureus (in words)” value was “moderate activity”, the IC50 was 94.2 µg/mL (≈ 289 µM), the inhibition at 40 µg/mL stood at 26.9 ± 0.35% and the inhibition at 100 µg/mL amounted to 53 ± 0.7%. In addition, at urease enzyme, the IC50 was 217 µM, the inhibition at 50 µg/mL came out at 32 ± 0.28% and the inhibition at 100 µg/mL was found to be 74.9 ± 0.13%.

`C#CCNc1ccc(Br)c(C)c1` [Compound 8c, 4-bromo-3-methyl-N-(prop-2-ynyl)aniline] displayed a melting point of 40.85 °C. Further, in data set [1], the IC50 came to 78 µg/mL (≈ 348 µM), the “Percentage scavenging activity at 50 ug/ml” value is recorded as 33.66±0.09% and the “Percentage scavenging activity at 100 ug/ml” value worked out at 62.8±0.19%. Besides, the inhibition at 100 µg/mL with Bacillus subtillus (Bacillus) was 36 ± 0.39%. For the same compound, in the data set on Staphylococcus aureus, the inhibition at 40 µg/mL worked out at 15.9 ± 0.69% and the inhibition at 100 µg/mL stood at 35 ± 0.2%. Further, the “urease inhibition activity (in words)” value on urease enzyme (50 and 100 µg/ml tested) is on record as “did not show any satisfactory results”. Further, on urease enzyme, the inhibition at 50 µg/mL was 32 ± 0.38% and the inhibition at 100 µg/mL was 45.26 ± 0.295%.

For the compound `C#CCOc1ccc(Br)cc1Cl` [Compound 2a, 4-bromo-2-chloro-1-(prop-2-ynyloxy)benzene], the melting point was 29 °C. Besides, in data set [1], the IC50 is 67.72 µg/mL (≈ 276 µM), the “Percentage scavenging activity at 50 ug/ml” value is 35.67±0.09% and the “Percentage scavenging activity at 100 ug/ml” value is given as 76.09±0.12%. For the same compound, the “activity against Bacillus subtillus (in words)” value in the data set on Bacillus subtillus was “inactive”. Moreover, in the data set with Bacillus subtillus (Bacillus, 50 ug/ml, read-out: Bacillus subtillus 50 ug/ml (percentage inhibition)), the inhibition at 50 µg/mL amounted to 42.4 ± 0.35%. Besides, in the data set on Staphylococcus aureus, the IC50 came to 97.7 µg/mL (≈ 398 µM), the inhibition at 40 µg/mL came to 29.13 ± 0.12% and the inhibition at 100 µg/mL was 51 ± 0.5%. For the same compound, on urease enzyme, the IC50 was 245 µM, the inhibition at 50 µg/mL was determined as 42.5 ± 0.7% and the inhibition at 100 µg/mL came out at 82 ± 0.09%.

The compound `C#CCOc1ccc([N+](=O)[O-])cc1` [Compound 2f, 1-nitro-4-(prop-2-ynyloxy)benzene] returned a melting point of 129 °C. Besides, in data set [1], the “nitric oxide scavenging activity (in words)” value is “did not show any significant results”, the “Percentage scavenging activity at 50 ug/ml” value is reported as 32±0.10% and the “Percentage scavenging activity at 100 ug/ml” value amounted to 47.01±0.27%. Besides, the “activity against Bacillus subtillus (in words)” value in the data set on Bacillus subtillus is listed as “batter activity”. Further, in the data set on Bacillus subtillus (Bacillus), the inhibition at 100 µg/mL was 57.9 ± 0.25% and the IC50 was 87.5 µg/mL (≈ 494 µM). In the data set with Staphylococcus aureus, the “activity against Staphylococcus aureus (in words)” value was “inactive”, the inhibition at 40 µg/mL is 18.7 ± 0.3% and the inhibition at 100 µg/mL was 39 ± 0.4%. Moreover, on urease enzyme, the IC50 is 360 µM, the inhibition at 50 µg/mL amounted to 44 ± 0.43% and the inhibition at 100 µg/mL came out at 65.8 ± 0.18%.

Usually melting point stands for the temperature of the solid-liquid transition.
